Measurements from patent US7968532B2 (Besins Healthcare Luxembourg, priority 2003, dated 2011).
Where two headings read alike, the source gives them in different places.

Legend:
[1] = Follow-up study: percutaneous Z-[^3H]-4-hydroxy tamoxifen or Z-[^3H]-tamoxifen on the breast before surgery; tissue, plasma, urine radioactivity; conditions: for Share of radioactivity in blood: 24 hours after percutaneous 4-hydroxy tamoxifen
Protocol: (§1) The patients received [^3H]-labeled drug applied directly on the affected breasts at specified intervals ranging from 12 hours to 7 days before surgery to excise diseased tissue. Breast tissue from three regions: the tumor, tissue immediately surrounding the tumor, and normal tissue, was excised and immediately frozen in liquid nitrogen. Additionally, plasma and urine samples were obtained at scheduled intervals and frozen until analysis.

[2] = Pharmacokinetics of 4-hydroxy tamoxifen gel in healthy premenopausal women; assay type: in vivo, human
Protocol: (§2) Each participant applied the gel daily for the duration of two menstrual cycles.
At the end of a menstrual cycle, each patient received a single dose, after which serial blood samples were collected at 0, 0.5, 1, 1.5, 2, 3, 4, 6, 12, 18, 24, 36, 48, and 72 hours.
(§3) On the first day of the following menstruation, treatment, which consisted of daily application of the gel over two menstrual cycles, began. Blood samples were collected 24 hours following the morning application of gel on days 7, 20 and 25 of the first and second cycles. On the last day of administration, day 25 of the second menstrual cycle, serial blood samples were collected prior to application and at 0.5, 1, 1.5, 2, 3, 4, 6, 12, 18, 24, 36, 48, and 72 hours after application of the gel.

[3] = human, in vivo; cited from earlier work
[4] = in vivo
Protocol: as §1

rat liver = conditions: cited from earlier work
[5] = topical application
Protocol: as §2, §3

[6] = one person in Group 2 (0.5 mg/day gel, seventh day); one person in Group 1 (oral tamoxifen, fifth day); cited from earlier work

With CC/C(=C(/c1ccc(O)cc1)c1ccc(OCCN(C)C)cc1)c1ccccc1 (single isomer, unassigned) [E isomer] as the compound, how does the “Percentage of radioactivity in breast tissue as Z and E isomer” value ([1]; day 7 after percutaneous administration) read?
The value was 33%.

Which “Plasma concentration of 4-hydroxy tamoxifen, Mean ± SD (Range)” value (“Plasma concentration … Mean ± SD (Range)” below) ([2]; 0.5 mg/day, gel 20 mg/100 g, n=12, First cycle Day 1, 0 hr) does the source give for CCC(=C(c1ccc(O)cc1)c1ccc(OCCN(C)C)cc1)c1ccccc1 [4-hydroxy tamoxifen, 1-[4-(2-N-dimethylaminoethoxy)phenyl]-1-(4-hydroxyphenyl)-2-phenylbut-1-ene] here?
Its value is “(0-17.2) pg/mL”.

And the “Plasma concentration … Mean ± SD (Range)” value ([2]; 0.5 mg/day, gel 20 mg/100 g, n=12, Second cycle, +8 days, LOQ <5 pg/mL)?
Its value is “<LOQ”.

And the “Plasma concentration … Mean ± SD (Range)” value ([2]; 0.5 mg/day, gel 20 mg/100 g, n=12, Second cycle, +12 days (maximum))?
The value was no more than 9.09 pg/mL.

What about the “Plasma concentration … Mean ± SD (Range)” value ([2]; 0.5 mg/day, gel 20 mg/100 g, n=12, Second cycle, +20 days) of the same compound?
Its value is 0 pg/mL.

And the “Plasma concentration … Mean ± SD (Range)” value ([2]; 1 mg/day, gel 20 mg/100 g, n=8, First cycle Day 1, 0 hr)?
The value was “(0-13.9) pg/mL”.

And the “Plasma concentration … Mean ± SD (Range)” value ([2]; 1 mg/day, gel 20 mg/100 g, n=8, Second cycle, +20 days, LOQ <5 pg/mL)?
Its value is “<LOQ”.

And the “Plasma concentration … Mean ± SD (Range)” value ([2]; 1 mg/day, gel 57 mg/100 g, n=12, First cycle Day 1, 0 hr)?
The value was “(0-9.5) pg/mL”.

And the “Plasma concentration … Mean ± SD (Range)” value ([2]; 1 mg/day, gel 57 mg/100 g, n=12, Second cycle, +8 days)?
Its value is “(0-14.8) pg/mL”.

What about the “Plasma concentration … Mean ± SD (Range)” value ([2]; 2 mg/day, gel 57 mg/100 g, n=12, First cycle Day 1, 0 hr) of the same compound?
The value was “(0-0) pg/mL”.

And the “Plasma concentration … Mean ± SD (Range)” value ([2]; 2 mg/day, gel 57 mg/100 g, n=12, Second cycle, +12 days)?
The value was “(0-30.4) pg/mL”.

And the “Radioactivity in excised tissue and normal breast tissue surrounding the tumor” value [3]?
The value was “contained radioactivity”.

And the “Metabolism in cytosolic and nuclear fractions of breast tissue” value [4]?
Its value is “remained unmetabolized except for limited isomerization from the Z to the E form”.

And the “Share of radioactivity in blood” value [4]?
The value was 68%.

What about the “Subcellular distribution in breast tissue” value [4] of the same compound?
The value was “concentrated predominantly in the cytosolic and nuclear fractions of breast tissue”.

What about the “Time of plateau of radioactivity in blood” value [4] of the same compound?
Its value is 4 to 6 days.

What about the Rat liver carcinogen (rat liver; in vivo) of the same compound?
Its Rat liver carcinogen is “not”.

What about the Systemic effects [5] of the same compound?
Its Systemic effects is “no detectable laboratory or clinical evidence of systemic effects”.

Which “Share of radioactivity in blood” value [1] does the source give for CCC(=C(c1ccc(O)cc1)c1ccc(O)cc1)c1ccccc1 [Bisphenol] here?
Its value is 11%.

For CCC(=C(c1ccc(O)cc1)c1ccc(OCCNC)cc1)c1ccccc1 [N-Desmethyl-4-Hydroxy Tamoxifen], which “Share of radioactivity in blood” value [1] is on record?
The value was 18%.

For CC/C(=C(\c1ccc(O)cc1)c1ccc(OCCN(C)C)cc1)c1ccccc1 [Z-4-hydroxy tamoxifen], which “Percentage of radioactivity in breast tissue as Z and E isomer” value [4] is on record?
Its value is 32%.

What does the source list for CC/C(=C(\c1ccccc1)c1ccc(OCCN(C)C)cc1)c1ccccc1 [tamoxifen, reference compound]?
Reported side effects [6]: hot flashes and mild vaginitis; Rat liver carcinogen (rat liver): is a potent rat liver carcinogen
